According to patent US20120302530A1, “23-HYDROXY-BETULINIC ACID DERIVATIVES, PREPARATION METHODS AND USES THEREOF” (priority 2009, published 2012):

How the values were obtained:
normal person PBMC = assay: Toxicity to PBMC cells (MTT, day 7); assay type: cell-based, human; settings: Homo sapiens, 168 h, day 7, MTT
Method: (2) Toxicity of compounds zhangnan-5, zhangnan-7 and zhangnan-8 to C8166 and PBMC cells:
C8166 (human T cell line) and PBM (using lymphocyte isolation liquid to separate from normal human peripheral blood, and adhered mononuclear cell separated from PBMC) cells in exponential phase are taken. The cells are resuspended after centrifugal (1000 r•min-1, 10 min), and the concentrations are adjusted to 4×10^5/ml and 2×10^6/ml. The test samples are double diluted on the 96-hole cell culture plate. In total 6 gradients are set, each having 3 duplicate holes. In addition, positive control group and cell control group are set. Upon adding cell suspended liquid, the test samples are placed in incubator of 370C and 5% CO2 for incubation. On the seventh (7th) day, MTT method is used to determine toxicity of the samples to cells.
Inhibition ratio of cell growth (%)=(1−experimental hole OD value/control hole (OD value)×100%

AU-565 = assay: MTT cytotoxicity, human tumor cell strain; assay type: cell-based; settings: AU565, AU-565, Mammary Gland, 72 hours
Source text: (§1) We use human tumor cell lines to conduct cytotoxicity analysis. Thirty-one (31) kinds of human tumor cell strains are cultivated in the normal culture medium containing various compounds of zhangnan-5, zhangnan-7 and zhangnan-8. The human tumor lines are bought from ATCC and NCI, and is cultivated with DMEM culture solution containing 10% FBS in 370C couveuse containing 5% CO2. The merged cells are digested by trypsinase, and are counted after washed by the culture solution. 3000˜6000 cells are added into each hole of the 96-hole culture plate, and are hatched for 16 hours or 24 hours. Then, compounds zhangnan-5, zhangnan-7 and zhangnan-8 with different concentrations are added into the holes. Upon further cultivated for another 72 hours, MTT tests are conducted to cells in group treated with drugs and the control group cells, to determine the survival condition of the cells.

LoVo = assay: MTT cytotoxicity, human tumor cell strain; assay type: cell-based; settings: Colon, 72 hours
Source text: as §1

Jurkat = assay: MTT cytotoxicity, human tumor cell strain; assay type: cell-based; settings: Leukemia T Cell, 72 hours
Source text: as §1

MDA-MB-435 = assay: MTT cytotoxicity, human tumor cell strain; assay type: cell-based; settings: MDA-MB-435, Mammary Gland, 72 hours
Source text: as §1

786-O = assay: MTT cytotoxicity, human tumor cell strain; assay type: cell-based; settings: 786-0, Kidney, 72 hours
Source text: as §1

ACHN = assay: MTT cytotoxicity, human tumor cell strain; assay type: cell-based; settings: Kidney, 72 hours
Source text: as §1

HCT-116 = assay: MTT cytotoxicity, human tumor cell strain; assay type: cell-based; settings: HCT-116, Colon, 72 hours
Source text: as §1

EC109 = assay: MTT cytotoxicity, human tumor cell strain; assay type: cell-based; settings: ECa-109, EC109, Esophagus, 72 hours
Source text: as §1

CNE-2Z = assay: MTT cytotoxicity, human tumor cell strain; assay type: cell-based; settings: CNE2Z, Nasopharynx, 72 hours
Source text: as §1

D145 = assay: MTT cytotoxicity, human tumor cell strain; assay type: cell-based; settings: D145, Prostate, 72 hours
Source text: as §1

LnCAP = assay: MTT cytotoxicity, human tumor cell strain; assay type: cell-based; settings: Prostate, 72 hours
Source text: as §1

CCL-247 = assay: MTT cytotoxicity, human tumor cell strain; assay type: cell-based; settings: CCL-247, Colo, 72 hours
Source text: as §1

Widr = assay: MTT cytotoxicity, human tumor cell strain; assay type: cell-based; settings: Colon, 72 hours
Source text: as §1

Raji = assay: MTT cytotoxicity, human tumor cell strain; assay type: cell-based; settings: Lymphoma, 72 hours
Source text: as §1

CCL-225 = assay: MTT cytotoxicity, human tumor cell strain; assay type: cell-based; settings: CCL-225, Colon, 72 hours
Source text: as §1

IGROV1 = assay: MTT cytotoxicity, human tumor cell strain; assay type: cell-based; settings: IGROV-1, IGROV1, Ovary, 72 hours
Source text: as §1

MDA-MB-231 = assay: MTT cytotoxicity, human tumor cell strain; assay type: cell-based; settings: MDA-MB-231, Mammary Gland, 72 hours
Source text: as §1

HT29 = assay: MTT cytotoxicity, human tumor cell strain; assay type: cell-based; settings: HT-29, HT29, Colon, 72 hours
Source text: as §1

PC3 = assay: MTT cytotoxicity, human tumor cell strain; assay type: cell-based; settings: PC-3, PC3, Prostate, 72 hours
Source text: as §1

A549 = assay: MTT cytotoxicity, human tumor cell strain; assay type: cell-based; settings: A549, Lung, 72 hours
Source text: as §1

SN12C = assay: MTT cytotoxicity, human tumor cell strain; assay type: cell-based; settings: Kidney, 72 hours
Source text: as §1

G-361 = assay: MTT cytotoxicity, human tumor cell strain; assay type: cell-based; settings: G-361, Skin (melanoma), 72 hours
Source text: as §1

SKOV3 = assay: MTT cytotoxicity, human tumor cell strain; assay type: cell-based; settings: SK-OV-3, SKOV3, Ovary, 72 hours
Source text: as §1

[1] = Acute toxicity of zhangnan-5 to mice upon feeding; assay type: in vivo, BlebC mice
Source text: (6) Research on the acute toxicity of compound zhangnan-5 to mice upon feeding the drug: (see Gol'dberg L E, Stepanova E S, Vertogradova T P, Shevniuk L A, Shepelevtseva G. Preclinical toxicological study of the new antibiotic eremomycin. Its acute toxicity for laboratory animals, Antibiot Med Biotekhnol. 1987, 32 (12): 910-5).
Two groups of 8-week old BlebC mice are taken, and each group has 10 mice (five male and five female). The mice are fed with the compound zhangnan-5 (prepared with corn oil or carrier) in single dose 500 mg/kg and in multi-dose 200 mg/kg (QDX15), respectively. Then, observation is made to the mice for 1 week and 4 week, respectively. The mice are weighted every other day. When the test is over, the tested mice are killed for pathological analysis. […] Thus, the compound zhangnan-5 has great potential to be developed as a new antineoplastic drug of wide spectrum. The compound zhangnan-5 can be used as drug substance of anti-tumor drugs, preferably used as drug substance of anti-malignant solid tumor drugs. The compound zhangnan-5 can also be used with drug carrier and/or excipient to make anti-tumor drug. The drug carrier and/or excipient can be, for example, corn oil, sodium carboxymethylcellulose, and the like.

## C=C(C)C1CCC2(C(=O)O)CCC3(C)C(CCC4C5(C)CCC(=O)C(C)(CO)C5CCC43C)C12 (stereo not drawn) [zhangnan-5]
Normal person PBMC
  IC50: 2.4 ± 0.38 µM
AU-565
  EC50: 0.59 µM
LoVo
  EC50: 0.15 µM
Jurkat
  EC50: 0.14 µM
MDA-MB-435
  EC50: 0.55 µM
786-O
  EC50: 3.1 µM
ACHN
  EC50: 1.2 µM
HCT-116
  EC50: 0.09 µM
EC109
  EC50: 0.78 µM
CNE-2Z
  EC50: 1.3 µM
D145
  EC50: 0.85 µM
LnCAP
  EC50: 0.69 µM
CCL-247
  EC50: 0.52 µM
Widr
  EC50: 0.28 µM
Raji
  EC50: 0.098 µM
CCL-225
  EC50: 0.23 µM
IGROV1
  EC50: 2.1 µM
MDA-MB-231
  EC50: 0.47 µM
HT29
  EC50: 0.47 µM
PC3
  EC50: 0.91 µM
A549
  EC50: 0.54 µM
SN12C
  EC50: 1.3 µM
G-361
  EC50: 0.087 µM
SKOV3
  EC50: 1.5 µM
[1]; fed, multi-dose 200 mg/kg (QDX15), observed 4 week
  toxicity, multi-dose: no toxicity is observed
[1]; fed, single dose 500 mg/kg, observed 1 week
  acute toxicity: no toxicity is observed
[1]; single dose 500 mg/kg and multi-dose 200 mg/kg (QDX15)
  mortality: no single death

## CC(C)C1CCC2(C(=O)O)CCC3(C)C(CCC4C5(C)CCC(=O)C(C)(CO)C5CCC43C)C12 (stereo not drawn) [zhangnan-7]
Normal person PBMC
  IC50: 25.8 ± 4.9 µM
AU-565
  EC50: 18.2 µM
LoVo
  EC50: 15.2 µM
Jurkat
  EC50: 21.3 µM
MDA-MB-435
  EC50: 19.3 µM
786-O
  EC50: 16.8 µM
ACHN
  EC50: 18.3 µM
HCT-116
  EC50: 15.1 µM
EC109
  EC50: 17.9 µM
CNE-2Z
  EC50: 19.2 µM
D145
  EC50: 14.8 µM
LnCAP
  EC50: 15.6 µM
CCL-247
  EC50: 15.6 µM
Widr
  EC50: 14.8 µM
Raji
  EC50: 20.5 µM
CCL-225
  EC50: 16.1 µM
IGROV1
  EC50: 17.4 µM
MDA-MB-231
  EC50: 17.5 µM
HT29
  EC50: 13.9 µM
PC3
  EC50: 16.2 µM
A549
  EC50: 13.1 µM
SN12C
  EC50: 17.5 µM
G-361
  EC50: 19.3 µM
SKOV3
  EC50: 16.9 µM

## CC(C)C1CCC2(C(=O)O)CCC3(C)C(CCC4C5(C)CCC(O)C(C)(CO)C5CCC43C)C12 (stereo not drawn) [zhangnan-8, 23-hydroxyl-dihydrobetulinic acid]
Normal person PBMC
  IC50: 11.6 ± 3.5 µM
AU-565
  EC50: 6.8 µM
LoVo
  EC50: 9.6 µM
Jurkat
  EC50: 7.1 µM
MDA-MB-435
  EC50: 7.9 µM
786-O
  EC50: 8.1 µM
ACHN
  EC50: 8.9 µM
HCT-116
  EC50: 7.8 µM
EC109
  EC50: 9.5 µM
CNE-2Z
  EC50: 10.2 µM
D145
  EC50: 8.4 µM
LnCAP
  EC50: 7.8 µM
CCL-247
  EC50: 8.2 µM
Widr
  EC50: 8.1 µM
Raji
  EC50: 6.9 µM
CCL-225
  EC50: 8.6 µM
IGROV1
  EC50: 7.2 µM
MDA-MB-231
  EC50: 7.2 µM
HT29
  EC50: 8.9 µM
PC3
  EC50: 8.9 µM
A549
  EC50: 6.9 µM
SN12C
  EC50: 7.6 µM
G-361
  EC50: 5.3 µM
SKOV3
  EC50: 6.9 µM
